The values that follow come from patent US9980486B2, “Herbicidal quinolines” (Syngenta Participations AG, priority 2014, dated 2018).

Molecules are shown by their SMILES.

What all share (assay type): in vivo
For experiment [1], the system named is Panicum miliaceum (PANMI). Nature of the experiment: Experiment B2 comparative glasshouse herbicide test, pre- and post-emergence, phytotoxicity. How it is done:
(§1) A comparative test is performed to compare the efficacy of quinoline compounds of the present invention with quinoline compounds taught in WO2014/037342 and napthyridines taught in WO2013/092834. Seeds of a variety of test species were sown in standard soil in pots. After cultivation for one day (pre-emergence) or after 10 days cultivation (post-emergence) under controlled conditions in a glasshouse (at 24/16° C., day/night; 14 hours light; 65% humidity), the plants were sprayed with an aqueous spray solution derived from the formulation of the technical active ingredient in 0.6 ml acetone and 45 ml formulation solution containing 10.6% Emulsogen EL (Registry number 61791-12-6), 42.2% N-methyl pyrrolidone, 42.2% dipropylene glycol monomethyl ether (CAS RN 34590-94-8) and 0.2% X-77 (CAS RN 11097-66-8). The test plants were then grown in a glasshouse under controlled conditions in a glasshouse (at 24/16° C., day/night; 14 hours light; 65% humidity) and watered twice daily. After 14 days for post-emergence and 21 days for pre-emergence and phytotoxicity evaluated using a five point scale (5=80-100%; 4=60-79%; 3=40-59%; 2=20-39%; 1=0-19%). Test Plants:—Eriochloa villosa (ERBVI), Panicum miliaceum (PANMI).

Experiment [2] deals with Eriochloa villosa (ERBVI). The description is as above. How it is done:
as §1

Experiment [3] concerns Ipomoea hederacea (IPOHE). Nature of the experiment: Experiment B1 glasshouse herbicide test, pre- and post-emergence, percentage damage. The settings on record: evaluated after 13 days. How it is done: (§2) Seeds of a variety of test species are sown in standard soil in pots (Lolium perenne (LOLPE), Solanum nigrum (SOLNI), Amaranthus retoflexus (AMARE), Setaria faberi (SETFA), Echinochloa crus-galli (ECHCG), Ipomoea hederacea (IPOHE)). After cultivation for one day (pre-emergence) or after 8 days cultivation (post-emergence) under controlled conditions in a glasshouse (at 24/16° C., day/night; 14 hours light; 65% humidity), the plants are sprayed with an aqueous spray solution derived from the formulation of the technical active ingredient in acetone/water (50:50) solution containing 0.5% Tween 20 (polyoxyethelyene sorbitan monolaurate, CAS RN 9005-64-5). […] The test plants are then grown in a glasshouse under controlled conditions in a glasshouse (at 24/16° C., day/night; 14 hours light; 65% humidity) and watered twice daily. After 13 days for pre and post-emergence, the test is evaluated for the percentage damage caused to the plant. The biological activities are shown in the following table on a five point scale (5=80-100%; 4=60-79%; 3=40-59%; 2=20-39%; 1=0-19%).

The subject of experiment [4] is Amaranthus retoflexus (AMARE). The experiment is described as above. The conditions noted are these: evaluated after 13 days. As for the experimental part:
as §2

For experiment [5], the system named is Echinochloa crus-galli (ECHCG). The experiment is described as above. The settings on record: evaluated after 13 days. How it is done:
as §2

Experiment [6] concerns Solanum nigrum (SOLNI). The description is as above. The conditions noted are these: evaluated after 13 days. As for the experimental part: as §2
Experiment [7] has as its system Lolium perenne (LOLPE). The description is as above. The conditions noted are these: evaluated after 13 days. As for the experimental part:
as §2

The subject of experiment [8] is Setaria faberi (SETFA). Described as above. The conditions noted are these: evaluated after 13 days. As for the experimental part: as §2
Setting [9] is: POST Application (60 g/ha), after 10 days cultivation, evaluated after 14 days.
[10] abbreviates: PRE Application (250 g/ha), after cultivation for one day, evaluated after 21 days.
Where [11] appears, read: POST Application (post-emergence, after 8 days cultivation), 1000 g/h.
[12] abbreviates: PRE Application (pre-emergence, after cultivation for one day), 1000 g/h.
Setting [13] is: POST Application (post-emergence), applied at 250 g/ha.
Setting [14] is: PRE Application (pre-emergence), applied at 250 g/ha.

As for `Cn1nnnc1NC(=O)c1cc2cccnc2c(-c2ccccc2)c1C(F)(F)F` [Compound 1.001, N-(1-methyltetrazol-5-yl)-8-phenyl-7-(trifluoromethyl)-quinoline-6-carboxamide], the “phytotoxicity, five point scale, PANMI” value in experiment [1] (setting [9]) and in experiment [1] (setting [10]) was 5 (5=80-100%) throughout. Moreover, the “phytotoxicity, five point scale, ERBVI” value in experiment [2] (setting [9]) was 5 (5=80-100%); in experiment [2] (setting [10]), 3 (3=40-59%). For the same compound, the “percentage damage caused to the plant, five point scale, IPOHE” value (“percentage damage caused … IPOHE” for short) in experiment [3] (setting [11]) and in experiment [3] (setting [12]) was 5 (5=80-100%) each time. Besides, the “percentage damage caused to the plant, five point scale, AMARE” value (“percentage damage caused … AMARE” for short) in experiment [4] (setting [11]) and in experiment [4] (setting [12]) was 5 (5=80-100%) throughout. For the same compound, the “percentage damage caused to the plant, five point scale, ECHCG” value (“percentage damage caused … ECHCG” for short) in experiment [5] (setting [11]) and in experiment [5] (setting [12]) was 5 (5=80-100%) in each case. Moreover, the “percentage damage caused to the plant, five point scale, SOLNI” value (“percentage damage caused … SOLNI” for short) in experiment [6] (setting [11]) and in experiment [6] (setting [12]) was 5 (5=80-100%) in each case. Also, the “percentage damage caused to the plant, five point scale, LOLPE” value (“percentage damage caused … LOLPE” for short) in experiment [7] (setting [11]) and in experiment [7] (setting [12]) was 5 (5=80-100%) each time. Besides, the “percentage damage caused to the plant, five point scale, SETFA” value (“percentage damage caused … SETFA” for short) in experiment [8] (setting [11]) and in experiment [8] (setting [12]) was 5 (5=80-100%) throughout.

Turning to `Cc1ccc2cc(C(=O)Nc3nnnn3C)c(C)c(-c3ccc(S(C)(=O)=O)cc3)c2n1` [Compound 1.038], the “percentage damage caused … IPOHE” value is on record as 5 (5=80-100%) in experiment [3] (setting [11]) and 4 (4=60-79%) in experiment [3] (setting [12]). Besides, the “percentage damage caused … AMARE” value in experiment [4] (setting [11]) and in experiment [4] (setting [12]) was 5 (5=80-100%) in each case. Besides, the “percentage damage caused … ECHCG” value in experiment [5] (setting [11]) and in experiment [5] (setting [12]) was 5 (5=80-100%) throughout. The “percentage damage caused … SOLNI” value in experiment [6] (setting [11]) and in experiment [6] (setting [12]) was 5 (5=80-100%) throughout. Moreover, the results for the “percentage damage caused … LOLPE” value in experiment [7] (setting [11]) and in experiment [7] (setting [12]) were 5 (5=80-100%) and 4 (4=60-79%), respectively. Moreover, the “percentage damage caused … SETFA” value in experiment [8] (setting [11]) and in experiment [8] (setting [12]) was 5 (5=80-100%) in each case.

On to `Cn1nnnc1NC(=O)c1cc2cccnc2c(-c2ccccc2)c1[S+](C)[O-]` (stereo not shown) [Compound 1.045], for which the “percentage damage caused … IPOHE” value was 5 (5=80-100%) in experiment [3] (setting [13]) and 2 (2=20-39%) in experiment [3] (setting [14]). Besides, the figures for the “percentage damage caused … AMARE” value in experiment [4] (setting [13]) and in experiment [4] (setting [14]) were 5 (5=80-100%) and 4 (4=60-79%), respectively. The “percentage damage caused … ECHCG” value in experiment [5] (setting [13]) is listed as 5 (5=80-100%); in experiment [5] (setting [14]), 4 (4=60-79%). The “percentage damage caused … SOLNI” value in experiment [6] (setting [13]) was 5 (5=80-100%); in experiment [6] (setting [14]) it was 4 (4=60-79%). In addition, the “percentage damage caused … LOLPE” value in experiment [7] (setting [13]) is reported as 3 (3=40-59%); in experiment [7] (setting [14]) it was 1 (1=0-19%). The “percentage damage caused … SETFA” value in experiment [8] (setting [13]) is given as 5 (5=80-100%); in experiment [8] (setting [14]), 1 (1=0-19%).
